Source: PMC10447463, “Data-mining unveils structure–property–activity correlation of viral infectivity enhancing self-assembling peptides” (Nature Communications, 2023)
Like-named read-outs stand apart in the source and are kept apart here.

Columns and labels:
[1] = assay type: physicochemical; conditions: for ThT Cat. / ThT-Fluorescence (categorical): ThT-active if fluorescence at least twice the control
Procedure, shortened: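 Preformed peptide fibrils (1 mg/mL) mixed with 50 µM ThT in PBS, 15 min at RT, fluorescence ex 440/em 488 nm versus PBS blank, triplicates. Zeta potential: peptides at 1 mg/mL in PBS pH 7.4, aged 1 d at RT, diluted in 1 mM KCl, Smoluchowski from electrophoretic mobility.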

[2] = assay type: physicochemical; set-up: key to Fibril / Fibril Formation / TEM 2cat / Fibril: 1 = fibrils present; 0 non-fibrillar structures; conditions: for Fibril / Fibril Formation: TEM, 1 mg/mL, uranyl acetate stain, qualitative
[3] = ThT fluorescence relative to blank (42.1851851851852 a.u.)
[4] = relative to blank 42.1851851851852 a.u.
[5] = ThT fluorescence relative to blank, blank = 42.1851851851852

Substance	ThT Cat. / ThT-Fluorescence (categorical) [1]	Fibril / Fibril Formation [2]	Tht category (> 1.5 to blank = +) ([1]; category 1/0)	TEM: 1= fibrils, 0= aggregates (micelle), 0.5 = aggregates and fibrils, -1 = nothing obersved, STD prep [2]	also measured
RIRFHIW	0 (ThT-inactive (N-Fold <2))	0			
RGDKIKIQINMC [psis29]			0 (ThT-inactive (N-Fold <2))	1	Tht rel to blank (42.1851851851852) [1, 3]: 1.396; Tht rel to blank (42.1851851851852) [1, 4]: 1.396; TEM: 1= fibrils, 0= aggregates (micelle), 0.5 = aggregates and fibrils, -1 = nothing obersved, STD prep ([2]; FigS26): 1
KIKIQINAWQ [JR3-II]					Tht category (> 1.5 to blank = +) ([1]; FigS26): 1 (Tht category (> 1.5 to blank = +)); TEM: 1= fibrils, 0= aggregates (micelle), 0.5 = aggregates and fibrils, -1 = nothing obersved, STD prep ([2]; FigS26): 1
KLKLKLQL [TG16]			0 (ThT-inactive (N-Fold <2))	1	Tht rel to blank (42.1851851851852) [1, 5]: 1.572
KIKIQII [TG1 / (KM4)]			0 (ThT-inactive (N-Fold <2))	1	Tht rel to blank (42.1851851851852) [1, 3]: 1.392; Tht rel to blank (42.1851851851852) [1, 5]: 1.392; Tht rel to blank (42.1851851851852) [1, 4]: 1.392
NKGAII [reference compound]	0 (ThT-inactive (N-Fold <2))	0			
KIKIKIKIWWWW [TM12]			1 (ThT. Cat is 1, if Rel. ThT >2)	0	Tht rel to blank (42.1851851851852) [1, 4]: 2.303
KYKYQY [KB1]			1 (ThT. Cat is 1, if Rel. ThT >2)	0	Tht rel to blank (42.1851851851852) [1, 5]: 6.106
MKVIFLKDVKG [reference compound]	0 (ThT-inactive (N-Fold <2))	1			
CKIWIQIY	1 (ThT. Cat is 1, if Rel. ThT >2)	1			
KVKVQVV [TG2]			0 (ThT-inactive (N-Fold <2))	0.5	Tht rel to blank (42.1851851851852) [1, 3]: 1.263; Tht rel to blank (42.1851851851852) [1, 5]: 1.263
KLVFFAK [reference compound]	0 (ThT-inactive (N-Fold <2))	1			
RATVYV [reference compound]	0 (ThT-inactive (N-Fold <2))	1			
KIKIQIII [TG7]			1 (ThT. Cat is 1, if Rel. ThT >2)	1	Tht rel to blank (42.1851851851852) [1, 3]: 2.287; Tht rel to blank (42.1851851851852) [1, 5]: 2.287; Tht rel to blank (42.1851851851852) [1, 4]: 2.287
CKIKIQIII [AR0 / F19]			1 (ThT. Cat is 1, if Rel. ThT >2)	1	Tht rel to blank (42.1851851851852) [1, 4]: 4.14
CKIKIQIRGD [psis21]					Tht category (> 1.5 to blank = +) ([1]; FigS26): 0 (Tht category (> 1.5 to blank = +)); TEM: 1= fibrils, 0= aggregates (micelle), 0.5 = aggregates and fibrils, -1 = nothing obersved, STD prep ([2]; FigS26): 1
GYVIIK [reference compound]	0 (ThT-inactive (N-Fold <2))	0			
LASLIYR [reference compound]	0 (ThT-inactive (N-Fold <2))	0			
CKIKIWIW	1 (ThT. Cat is 1, if Rel. ThT >2)	1			
KAQCTLP	0 (ThT-inactive (N-Fold <2))	0			

Substance	ThT Cat. / ThT-Fluorescence (categorical) [1]	Fibril / Fibril Formation [2]	Tht category (> 1.5 to blank = +) ([1]; category 1/0)	TEM: 1= fibrils, 0= aggregates (micelle), 0.5 = aggregates and fibrils, -1 = nothing obersved, STD prep [2]	also measured
NMWQKIKQII [JG8]					Tht category (> 1.5 to blank = +) ([1]; FigS26): 0 (Tht category (> 1.5 to blank = +)); TEM: 1= fibrils, 0= aggregates (micelle), 0.5 = aggregates and fibrils, -1 = nothing obersved, STD prep ([2]; FigS26): 0
RLRLTLC [CN13]			0 (ThT-inactive (N-Fold <2))	1	Tht rel to blank (42.1851851851852) [1, 5]: 1.899
KIWIWIW	1 (ThT. Cat is 1, if Rel. ThT >2)	1			
RVRVTVT	0 (ThT-inactive (N-Fold <2))	0			
RGDKIKIQINM [MG8a / CN17]			1 (ThT. Cat is 1, if Rel. ThT >2)	1	Tht rel to blank (42.1851851851852) [1, 3]: 9.126; Tht rel to blank (42.1851851851852) [1, 5]: 9.126; Tht rel to blank (42.1851851851852) [1, 4]: 9.126
EIEIQINMWQ [VH8]				0.5	Tht rel to blank (42.1851851851852) [1, 3]: 4.145
CRLRVGVS	0 (ThT-inactive (N-Fold <2))	0			
VHDCVNITIK [reference compound]	1 (ThT. Cat is 1, if Rel. ThT >2)	1			
KIKIKIKIWW [TM21]			1 (ThT. Cat is 1, if Rel. ThT >2)	0	Tht rel to blank (42.1851851851852) [1, 4]: 3.538
CEFEFQF [KB12]				0	Tht rel to blank (42.1851851851852) [1, 3]: 2.788
RGDKIKIQINMWQ [MG9a]			0 (ThT-inactive (N-Fold <2))	0.5	Tht category (> 1.5 to blank = +) ([1]; FigS26): 0 (Tht category (> 1.5 to blank = +)); Tht rel to blank (42.1851851851852) [1, 3]: 1.781; Tht rel to blank (42.1851851851852) [1, 4]: 1.781
KFKFQFNMW [BL5 / KB13]			0 (ThT-inactive (N-Fold <2))	1	Tht rel to blank (42.1851851851852) [1, 4]: 1.342
KIKIQINMWWQ [VH11]			0 (ThT-inactive (N-Fold <2))	0.5	Tht rel to blank (42.1851851851852) [1, 4]: 1.314
KYFIL [reference compound]	0 (ThT-inactive (N-Fold <2))	0			
KIKIKIKI [TM13]			1 (ThT. Cat is 1, if Rel. ThT >2)	0	Tht rel to blank (42.1851851851852) [1, 4]: 3.325
IIIK [reference compound]	0 (ThT-inactive (N-Fold <2))	0			
HHHHKIKIQINMYYYY [TM16]			1 (ThT. Cat is 1, if Rel. ThT >2)	1	Tht rel to blank (42.1851851851852) [1, 5]: 12.17
CRFRFHFH	0 (ThT-inactive (N-Fold <2))	1			
KFKQFFINMWQ [VH14]			0 (ThT-inactive (N-Fold <2))	0	Tht rel to blank (42.1851851851852) [1, 5]: 1.085
HHHHKAKAKAKAWWWW [TM8]			1 (ThT. Cat is 1, if Rel. ThT >2)	0.5	Tht rel to blank (42.1851851851852) [1, 5]: 3.672

Substance	ThT Cat. / ThT-Fluorescence (categorical) [1]	Fibril / Fibril Formation [2]	Tht category (> 1.5 to blank = +) ([1]; category 1/0)	TEM: 1= fibrils, 0= aggregates (micelle), 0.5 = aggregates and fibrils, -1 = nothing obersved, STD prep [2]	also measured
RINFWFW	1 (ThT. Cat is 1, if Rel. ThT >2)	0			
CRLSLSLS	0 (ThT-inactive (N-Fold <2))	1			
KIKIQINMAQ [JR2]					Tht category (> 1.5 to blank = +) ([1]; FigS26): 0 (Tht category (> 1.5 to blank = +)); TEM: 1= fibrils, 0= aggregates (micelle), 0.5 = aggregates and fibrils, -1 = nothing obersved, STD prep ([2]; FigS26): 1
IKFLSVN [reference compound]	0 (ThT-inactive (N-Fold <2))	1			
KIKIQIMWNQ [VH15]					Tht category (> 1.5 to blank = +) ([1]; FigS26): 0 (Tht category (> 1.5 to blank = +)); TEM: 1= fibrils, 0= aggregates (micelle), 0.5 = aggregates and fibrils, -1 = nothing obersved, STD prep ([2]; FigS26): 1
KIKIQIRGD [MG6]					Tht category (> 1.5 to blank = +) ([1]; FigS26): 1 (Tht category (> 1.5 to blank = +)); TEM: 1= fibrils, 0= aggregates (micelle), 0.5 = aggregates and fibrils, -1 = nothing obersved, STD prep ([2]; FigS26): 1
RVHLGLG	0 (ThT-inactive (N-Fold <2))	1			
KFQFNMW	0 (ThT-inactive (N-Fold <2))	1			
KIKIQIW [TM69]			1 (ThT. Cat is 1, if Rel. ThT >2)	1	Tht rel to blank (42.1851851851852) [1, 5]: 2.047; Tht rel to blank (42.1851851851852) [1, 4]: 2.047
NMWQKFKFQF [JG11]					Tht category (> 1.5 to blank = +) ([1]; FigS26): 0 (Tht category (> 1.5 to blank = +)); TEM: 1= fibrils, 0= aggregates (micelle), 0.5 = aggregates and fibrils, -1 = nothing obersved, STD prep ([2]; FigS26): 1
KFKFQFN [BL7]			0 (ThT-inactive (N-Fold <2))	1	Tht rel to blank (42.1851851851852) [1, 4]: 1.056
KIKIQIAMWQ [JR4]					Tht category (> 1.5 to blank = +) ([1]; FigS26): 1 (Tht category (> 1.5 to blank = +)); TEM: 1= fibrils, 0= aggregates (micelle), 0.5 = aggregates and fibrils, -1 = nothing obersved, STD prep ([2]; FigS26): 1
KLKLTLT	1 (ThT. Cat is 1, if Rel. ThT >2)	1			
KIKIQIN [JGB3]			0 (ThT-inactive (N-Fold <2))	1	Tht rel to blank (42.1851851851852) [1, 4]: 1.784
IIIQGK [reference compound]	0 (ThT-inactive (N-Fold <2))	0			
HLHLPLL [CN14]			0 (ThT-inactive (N-Fold <2))	0.5	Tht rel to blank (42.1851851851852) [1, 5]: 1.069
NMWQKAKAQA [JG10]					Tht category (> 1.5 to blank = +) ([1]; FigS26): 1 (Tht category (> 1.5 to blank = +)); TEM: 1= fibrils, 0= aggregates (micelle), 0.5 = aggregates and fibrils, -1 = nothing obersved, STD prep ([2]; FigS26): 1
EIEIQINM [TM95 / (TM75)]				1	Tht rel to blank (42.1851851851852) [1, 3]: 1.473
